{"source": "patent US9089561B2", "about": "“Methods for treating depression, neurodegeneration, inhibiting amyloid β deposition, delaying senescence, and extending life spans with heterocyclic compounds” (ZENYAKU KOGYO KABUSHIKI KAISHA, priority 2006, dated 2015)", "key": {"[1]": {"system": "gerbil transient forebrain ischemia model", "assay": "delayed neuronal death in hippocampus CA1 region, gerbil transient forebrain ischemia model", "assay_type": "in vivo", "settings": "four days after reperfusion", "method": "Gerbils (male, weighing approximately 55 to 80 g) were pinched with an exposured bilateral common carotid artery by microclip to cause the cerebral ischemia under 2% halothane inhalation anesthesia. After four minutes of ischemia, the microclip was removed to reperfuse the cerebral ischemia and the anesthesia was stopped. Four days after the reperfusion, the brain was removed and formalin-fixed. Sections of 4 μm in thickness were prepared and stained with hematoxylin-eosin. Surviving cells in the entire hippocampus CA1 field on both sides of each specimen were counted using a micrometer under the microscope. The number of surviving cells per 0.5 mm was obtained.\nCompound 24 was suspended in 1% HPC and orally given one hour before the cerebral ischemia and 5 hours after the reperfusion. Then, two doses per day were given from the following day to the third day since the perfusion. The surviving cell count in the hippocampus CA1 field was expressed by the average±standard error. The Mann-Whitney's U test was used to obtain significant differences. The effective oral dosage of Compound 24 was plotted as abscissa and the surviving cell count/0.5 mm was plotted as ordinate."}, "[2]": {"system": "senescene accelerated mice (SAMP8)", "assay": "amyloid β deposition in the hippocampus by amyloid β immunohistochemistry", "assay_type": "in vivo", "settings": "0.002, 0.01 and 0.1 mg/kg/day in drinking water for 2 months, vs tap water", "method": "Senescene accelerated mice (SAMP8) (male, 8 months old at the beginning of the study) were used for experiment. […] Eight weeks after the dosing, the mouse brain was removed, Methacarn-fixed (methanol:chloroform: acetic acid=6:3:1), and paraffin-embedded. Then, sections of 8 μm in thickness were prepared using a microtome.\nThe sections were immunostained with streptavidin-biotin using a VECTASTATIN ABC kit. After one hour of incubation in 10% normal goat serum, the anti-amyloid β (Aβ) antibody was diluted with PBS to ten fold and incubated at 4° C. overnight. The following day, PBS rinsing, 1.5 hours of incubation with biotinylated anti-rabbit secondary antibody, PBS rinsing, and 1.5 hours of incubation with peroxidase-labeled streptavidin were conducted. The immunoreaction was visualized with DAB and specimens were prepared.\nImmunoreactive Aβ-like granules in the hippocampus were counted under the microscope. The Aβ-like immunoreactive granule was observed as brown deposits in the hippocampus. The count was made for one section per individual."}, "[3]": {"system": "senescene accelerated mice (SAMP8)", "assay": "grading scores as aging indicator in senescene accelerated mice", "assay_type": "in vivo", "method": "(§1) Senescene accelerated mice (SAMP8) (male, 8 months old at the beginning of the study) were used in the study.\n(§2) Compound 24 dissolved in tap water was given to the senescene accelerated mice at a dosage of 0.001, 0.01, or 0.1 mg/kg/day as drinking water. Tap water was given to the control mice as drinking water.\nAs an aging indicator of senescene accelerated mice, grading scores (Takeda et al., 1981) were measured after 0, 4, 8, 12, and 16 weeks of drinking water dosing in a short term study and after 12, 16, 20, 24, 28, and 32 weeks of drinking water dosing in a long term study."}, "[4]": {"system": "senescene accelerated mice (SAMP8)", "assay": "survival rate / average life span of senescene accelerated mice", "assay_type": "in vivo", "settings": "0.01 mg/kg/day in drinking water, vs control group given tap water, at any age in month", "method": "as §1, §2\nFIG. 6 is a graphical representation showing the influence of Compound 24 on the survival rate of senescene accelerated mice (SAMP8). The age in months of mice is plotted as abscissa and the survival rate (%) is plotted as ordinate."}, "[5]": {"assay": "preclinical study (safety)"}}}
{"smiles": "O=C1N=C2C=CC=CN2C12Cc1ccccc1C2", "note": "[Compound 24, spiro[imidazo[1,2-a]pyridin-2(3H)-one-3,2′-indan]]", "values": [{"measurement": "surviving cell count in the hippocampus CA1 field", "setting": "[1]; 0.01 mg/kg oral, n=7, average±standard error", "value": "27.8±1.9 /0.5 mm"}, {"measurement": "surviving cell count in the hippocampus CA1 field", "setting": "[1]; 0.1 mg/kg oral, n=8, average±standard error", "value": "32.5±9.4 /0.5 mm"}, {"measurement": "surviving cell count in the hippocampus CA1 field", "setting": "[1]; 1 mg/kg oral, n=9, average±standard error", "value": "44.3±9.4 /0.5 mm"}, {"measurement": "number of amyloid β-immunoreactive granules in the hippocampus", "setting": "[2]", "value": "significantly (*) decreased"}, {"measurement": "grading score vs control, long term study", "setting": "[3]; 0.01 mg/kg/day in drinking water, Weeks 20 to 32", "value": "significant differences (*, **)"}, {"measurement": "grading score vs control, long term study", "setting": "[3]; 0.1 mg/kg/day in drinking water, Weeks 16 to 32", "value": "significant differences (*, **)"}, {"measurement": "grading score vs control, short term study", "setting": "[3]; Week 16, 0.001, 0.01 and 0.1 mg/kg/day in drinking water", "value": "Significant differences (*)"}, {"measurement": "grading score (aging indicator), short term study", "setting": "[3]; in drinking water, up to 16 weeks, score of water group increased after Week 12", "value": "did not increase"}, {"measurement": "average life span (survival rate)", "setting": "[4]", "value": "average life span was extended"}, {"measurement": "safety in a preclinical study", "setting": "[5]", "value": "highly safe"}]}
